# Values quoted from earlier work as cited in patent US20130142872A1, “EMP2: Ethyl-Methyl, di Methyl, tri Methyl Pyruvate Acid Esters: A Tool for Regulating HbA1c and a Riboswitch Activator” (priority 2011, published 2013).
# Columns and labels:
# [1] = tested on: Mouse neuron and astrocyte cultures; settings: for NAD(+) depletion: PARP1 activation by MNNG or H(2)O(2); for poly(ADP-ribose) accumulation: during MNNG exposure, immunostaining; for cell death: hydrogen peroxide, NMDA or MNNG exposure
# [2] = tested on: primary astrocyte cultures; settings: 10 mM extracellular NAD(+) after MNNG exposure
# [3] = tested on: Cultured mouse astrocytes; settings: for cell death / translocation of the apoptosis-inducing factor from mitochondria to nuclei: after PARP-1 activation
# [4] = clinically prescribed / clinically relevant doses
# [5] = wide variety of preclinical models of critical illnesses
# [6] = after coronary ischemia and reperfusion
# THP-1 monocytic cells = settings: PMA-stimulated THP-1 cells
# B-islet pancreatic cell = settings: as compared to its glucose control
compound,measurement,setting,value
NC(=O)c1ccccc1 [benzamide],NAD(+) depletion,[1],prevented
same,poly(ADP-ribose) accumulation,[1],decrease
same,cell death,[1],markedly reduced
NC(=O)c1ccc[n+]([C@@H]2O[C@H](COP(=O)([O-])OP(=O)(O)OC[C@H]3O[C@@H](n4cnc5c(N)ncnc54)[C@H](O)[C@@H]3O)[C@@H](O)[C@H]2O)c1 [NAD(+)],cell death,[2],prevented
same,glycolytic capacity,[2],completely restored
same,mitochondrial membrane potential,[3]; NAD(+) restored to near-normal levels after PARP-1 activation,enabled the recovery
same,cell death,[3],blocked
same,translocation of the apoptosis-inducing factor from mitochondria to nuclei,[3],blocked
nobotanin B,cell death,[1],equally reduced
cyclosporin A,cell death,[3],blocked
same,translocation of the apoptosis-inducing factor from mitochondria to nuclei,[3],blocked
O=C(OC[C@H]1O[C@@H](OC(=O)c2cc(O)c(O)c(OC(=O)c3cc(O)c(O)c(O)c3)c2)[C@H](OC(=O)c2cc(O)c(O)c(OC(=O)c3cc(O)c(O)c(O)c3)c2)[C@@H](OC(=O)c2cc(O)c(O)c(OC(=O)c3cc(O)c(O)c(O)c3)c2)[C@@H]1OC(=O)c1cc(O)c(O)c(OC(=O)c2cc(O)c(O)c(O)c2)c1)c1cc(O)c(O)c(OC(=O)c2cc(O)c(O)c(O)c2)c1 [gallotannin],NAD(+) depletion,[1],prevented
same,poly(ADP-ribose) accumulation,[1],increase
same,cell death,[1],equally reduced
"CCOC(=O)C(C)=O [Ethyl pyruvate, ethyl pyruvate]",safety in human volunteers,[4],safe
same,survival and organ dysfunction,[5],improve survival and ameliorate organ dysfunction
same,cardiac function,[6],improve cardiac function
"CCCCC/C=C/C=C1/C(=O)C=CC1C/C=C\CCCC(=O)O (stereo not drawn) [PGJ2, 15-deoxy-Delta(12, 14)-PGJ2]","IL-1, IL-6 and TNFalpha (pro-inflammatory cytokine) secretion",THP-1 monocytic cells,inhibitory effect
same,IL-1Ra production,THP-1 monocytic cells,increasing
COC(=O)C(C)=O [Methyl pyruvate],increase in insulin production,B-islet pancreatic cell,six-fold
same,safety in human volunteers,[4],safe
